Measured values as given in patent EP3287436B1, “COMPOUNDS AND COMPOSITIONS FOR USE IN THE TREATMENT OF BCAT1-MEDIATED DISEASES” (Ergon Pharmaceuticals LLC, priority 2016, dated 2018).

Assays:
recombinant human BCAT1 = biological target: T1, recombinant human BCAT1 (Homo sapiens, UniProt P54687); experiment: Inhibition of BCAT1 enzymatic activity (NADH consumption, coupled leucine dehydrogenase assay); assay type: biochemical; settings: for remaining activity at 0.001 µM: compound concentration 1 nM; for remaining activity at 0.01 µM: compound concentration 10 nM; for remaining activity at 0.1 µM: compound concentration 100 nM; for IC50: inhibition of the enzymatic activity of BCAT1, range stated for compounds 2, 7 and 8 together
T1 construct: purchased Abcam
T1 sequence (P54687 1-386): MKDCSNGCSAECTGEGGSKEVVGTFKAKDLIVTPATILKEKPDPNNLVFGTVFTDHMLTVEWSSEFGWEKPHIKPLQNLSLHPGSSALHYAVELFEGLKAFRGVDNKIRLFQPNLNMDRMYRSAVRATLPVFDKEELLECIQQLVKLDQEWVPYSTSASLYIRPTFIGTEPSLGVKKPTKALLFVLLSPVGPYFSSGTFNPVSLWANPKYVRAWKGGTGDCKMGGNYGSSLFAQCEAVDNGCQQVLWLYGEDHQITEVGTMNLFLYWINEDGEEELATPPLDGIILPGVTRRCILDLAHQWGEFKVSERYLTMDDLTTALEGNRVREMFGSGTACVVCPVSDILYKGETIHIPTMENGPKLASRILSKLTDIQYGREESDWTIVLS
Experimental: Inhibition of BCAT1 enzymatic activity by compounds 2. 7 and 8. The ability of the compounds as disclosed herein to inhibit BCAT1 enzymatic activity was confirmed spectrophotometrically. In this experiment, 0.2 to 0.5 µg of recombinant human BCAT1 from Abcam was added to 95 µL of a reaction buffer containing […] 5'-phosphate (PLP), 50 mM ammonium sulfate, 0.05 mM NADH, 5mM DTT, 5mM a-ketoglutarate, 10 mM leucine, and 0.95 U leucine dehydrogenase (EMD Chemicals) and various concentrations of compounds 2, 7 and 8. Addition of BCAT1 to the reaction mixture led to the consumption of NADH, which was measured fluorometrically (ex:330-370 nm; em:450 nm). The rate of change of fluorescence was then estimated over of period of 10 min (10 cycles; 1 cycle/min). The assay was performed in triplicate in a 96-well plate. In Table 1, the results were expressed as % Control Enzymatic Activity, which is defined as the BCAT1 activity observed in the reaction mixture in the absence of an inhibitor. […]

[1] = test system: TGF-β1-stimulated human fibroblasts; experiment: Inhibition of collagen I production/secretion (ELISA of conditioned media); assay type: cell-based; settings: for concentration at which collagen I secretion is completely inhibited: Table 2; for concentration at which collagen I secretion is inhibited: summary of Table 3; for factor of increase of the collagen inhibitory activity: relative to compound 7
Experimental: In vitro fibrosis is assessed by measuring collagen synthesis after treatment of fibroblast cells with a profibrotic stimuli such as TGF-β1 or bleomycin. Collagen secretion into the media can be quantified in conditioned media using an appropriate ELISA kit.
Confluent monolayers of human fibroblasts, plated onto duplicate 35 mm dishes, were pretreated with various concentrations of compounds 2, 6, and 7 for 30 min followed by stimulation of the cells with 7 ng/mL TGF-β1 for 48 hrs. At the end of the experiment, conditioned media were collected and assessed for the presence of secreted collagen I, whereas cells were collected and lysed. Collagen I secretion was quantified using an ELISA kit from R&D Systems per the manufacturer's instructions and expressed as arbitrary absorbance units per µg of cell lysate. In Table 2, results are shown as % Control Collagen Production, defined as the amount of collagen I secreted per µg of cell lysate from fibroblast cultures stimulated with TGF-β1 in the absence of an inhibitor. […]
Confluent monolayers of human fibroblasts, plated onto duplicate 35 mm dishes, were pretreated with various concentrations of compounds 28 and 29 and Control Collagen Production determined according to the protocol set out in Example 5. In Table 3, results are shown as % Control Collagen Production, defined as the amount of collagen I secreted per µg of cell lysate from fibroblast cultures stimulated with TGF-β1 in the absence of an inhibitor. […]

[2] = control = BCAT1 activity in the absence of an inhibitor
[3] = compound concentration 2 nM (as printed in Table 2), 30 min pretreatment, 7 ng/mL TGF-β1 for 48 hrs
[4] = compound concentration 5 nM (as printed in Table 2), 30 min pretreatment, 7 ng/mL TGF-β1 for 48 hrs
[5] = compound concentration 10 nM (as printed in Table 2), 30 min pretreatment, 7 ng/mL TGF-β1 for 48 hrs

SMILES | remaining activity at 0.001 µM (recombinant human BCAT1; [2]) [%] | remaining activity at 0.01 µM (recombinant human BCAT1; [2]) [%] | remaining activity at 0.1 µM (recombinant human BCAT1; [2]) [%] | IC50 (recombinant human BCAT1) [nM] | concentration at which collagen I secretion is completely inhibited [1] [mM] | % Control Collagen Production [1, 3] [%] | % Control Collagen Production [1, 4] [%] | % Control Collagen Production [1, 5] [%] | concentration at which collagen I secretion is inhibited [1] [mM] | factor of increase of the collagen inhibitory activity [1] | also measured
CC(CCC(=O)O)C(=O)c1ccccc1 (centres unmarked) [Compound 6, 4-methyl-5-oxo-5-phenylpentanoic acid] | – | – | – | – | 5 to 10 | 105 | 77 | 2 | – | – | –
O=C(O)CCC(C(=O)c1ccccc1)c1ccccc1 (centres unmarked) [Compound 28, 5-oxo-4,5-diphenylpentanoic acid] | – | – | – | – | – | – | – | – | 2 | 2-5 | % Control Collagen Production ([1]; compound concentration 1 mM (Table 3), protocol of Example 5): 121%; % Control Collagen Production ([1]; compound concentration 2 mM (Table 3), protocol of Example 5): 18%; % Control Collagen Production ([1]; compound concentration 5 mM (Table 3), protocol of Example 5): 0%; % Control Collagen Production ([1]; compound concentration 10 mM (Table 3), protocol of Example 5): 0%
O=C(O)CCC(C(=O)c1ccc(Br)cc1)c1ccccc1 (centres unmarked) [Compound 29, 5-(4-bromophenyl)-5-oxo-4-phenylpentanoic acid] | – | – | – | – | – | – | – | – | 0.1 | 100 | % Control Collagen Production ([1]; compound concentration 0.01 mM (Table 3), protocol of Example 5): 88%; % Control Collagen Production ([1]; compound concentration 0.05 mM (Table 3), protocol of Example 5): 71%; % Control Collagen Production ([1]; compound concentration 0.1 mM (Table 3), protocol of Example 5): 8%

Now from value to molecule, other results behind:

remaining activity at 0.001 µM (recombinant human BCAT1; [2]) [%] | remaining activity at 0.01 µM (recombinant human BCAT1; [2]) [%] | remaining activity at 0.1 µM (recombinant human BCAT1; [2]) [%] | IC50 (recombinant human BCAT1) [nM] | SMILES | concentration at which collagen I secretion is completely inhibited [1] [mM] | % Control Collagen Production [1, 3] [%] | % Control Collagen Production [1, 4] [%] | % Control Collagen Production [1, 5] [%] | concentration at which collagen I secretion is inhibited [1] [mM] | factor of increase of the collagen inhibitory activity [1] | also measured
86 | 71 | 28 | 0.5 to 50 | CC(=O)C(C)CC(Cc1ccccc1)C(=O)O (centres unmarked) [Compound 2, 2-benzyl-4-methyl-5-oxohexanoic acid] | 5 to 10 | 111 | 4 | – | – | – | –
67 | 0 | 0 | 0.5 to 50 | CC(=O)C(CCC(=O)O)c1ccccc1 (centres unmarked) [Compound 7, 5-oxo-4-phenylhexanoic acid] | 5 to 10 | 150 | 41 | 2 | 5 to 10 | – | –
– | 23 | 16 | 0.5 to 50 | CC(=O)C(C)CC(CCC#N)C(=O)O (centres unmarked) [Compound 8, 2-(2-cyanoethyl)-4-methyl-5-oxohexanoic acid] | – | – | – | – | – | – | remaining activity at 0.0005 µM (recombinant human BCAT1; compound concentration 0.5 nM, control = BCAT1 activity in the absence of an inhibitor): 47%
